Assay results: patent publication US4393225A, “AI-77 Compounds and pharmaceutically acceptable salts thereof” (Asahi Kasei Kogyo Kabushiki Kaisha, priority 1979, dated 1983)
Where two headings read alike, the source gives them in different places.

System: ulcer
Assay: Anti-ulcer test (restraint and water immersion ulcer in rats, i.p.)
Assay type: in vivo, Male Wistar rats
Details: Rattus norvegicus, ip, read-out: % Inhibition of Ulcer
Method in brief: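 Compound given intraperitoneally in saline to 24 h-fasted male Wistar rats about 150 g, followed after one hour by 6 h restraint with water immersion at 21 °C. Gastric lesions graded 0, 0.5, 1, 2 or 3 on microscopic inspection and converted to percent ulcer inhibition.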

Row | SMILES | inhibition in vivo at 50 mg/kg (50 mg/kg i.p.) [%] | inhibition in vivo at 50 mg/kg [%]
1 | CC(C)CC(NC(=O)C(O)C1OC(=O)CC1N)C1Cc2cccc(OC(=O)C(C)C)c2C(=O)O1 (stereo not shown) [IIIa-12-2] | 78 | 
2 | CCCCCCCCCCCCCCCCCC(=O)Oc1cccc2c1C(=O)OC(C(CC(C)C)NC(=O)C(O)C1OC(=O)CC1N)C2 (stereo not shown) [IIIa-12-3] | 66 | 
3 | CCCCCCCCC=CCCCCCCCC(=O)Oc1cccc2c1C(=O)OC(C(CC(C)C)NC(=O)C(O)C1OC(=O)CC1N)C2 (stereo not shown) [IIIa-12-4] | 72 | 
4 | CC(C)CC(NC(=O)C(O)C1OC(=O)CC1N)C1Cc2cccc(OC(=O)C3CCCO3)c2C(=O)O1 (stereo not shown) [IIIa-12-5] | 78 | 
5 | COC(C)CC(=O)Oc1cccc2c1C(=O)OC(C(CC(C)C)NC(=O)C(O)C1OC(=O)CC1N)C2 (stereo not shown) [IIIa-12-6] | 78 | 
6 | Cc1ccc(C(=O)Oc2cccc3c2C(=O)OC(C(CC(C)C)NC(=O)C(O)C2OC(=O)CC2N)C3)cc1 (stereo not shown) [IIIa-12-7] | 78 | 
7 | CC(C)CCOc1ccc(C(=O)Oc2cccc3c2C(=O)OC(C(CC(C)C)NC(=O)C(O)C2OC(=O)CC2N)C3)cc1 (stereo not shown) [IIIa-12-8] | 72 | 
8 | CC(C)CC(NC(=O)C(O)C1OC(=O)CC1N)C1Cc2cccc(OC(=O)C(Cl)(Cl)Cl)c2C(=O)O1 (stereo not shown) [IIIa-12-9] | 66 | 
9 | COc1cccc2c1C(=O)OC(C(CC(C)C)NC(=O)C(O)C1OC(=O)CC1N)C2 (stereo not shown) [IIIa-13-1] | 100 | 
10 | CCOc1cccc2c1C(=O)OC(C(CC(C)C)NC(=O)C(O)C1OC(=O)CC1N)C2 (stereo not shown) [IIIa-13-2] | 94 | 
11 | CCCCOc1cccc2c1C(=O)OC(C(CC(C)C)NC(=O)C(O)C1OC(=O)CC1N)C2 (stereo not shown) [IIIa-13-3] | 100 | 
12 | CC(C)CCOc1cccc2c1C(=O)OC(C(CC(C)C)NC(=O)C(O)C1OC(=O)CC1N)C2 (stereo not shown) [IIIa-13-4] | 100 | 
13 | CCCCCCCCCCCCCCCCCCOc1cccc2c1C(=O)OC(C(CC(C)C)NC(=O)C(O)C1OC(=O)CC1N)C2 (stereo not shown) [IIIa-13-5] | 72 | 
14 | CC(C)CC(NC(=O)C(O)C1OC(=O)CC1N)C1Cc2cccc(OCCCl)c2C(=O)O1 (stereo not shown) [IIIa-13-6] | 94 | 
15 | CCCCCCCCC=CCCCCCCCCOc1cccc2c1C(=O)OC(C(CC(C)C)NC(=O)C(O)C1OC(=O)CC1N)C2 (stereo not shown) [IIIa-13-7] | 72 | 
16 | CC(C)CC(NC(=O)C(O)C1OC(=O)CC1N)C1Cc2cccc(OCc3ccccc3)c2C(=O)O1 (stereo not shown) [IIIa-13-9] | 89 | 
17 | CC(C)CC(NC(=O)C(O)C1OC(=O)CC1N)C1Cc2cccc(OC3CC3)c2C(=O)O1 (stereo not shown) [IIIa-13-10] | 94 | 
18 | CC(C)CC(NC(=O)C(O)C1OC(=O)CC1N)C1Cc2cccc(OCC3CCCCC3)c2C(=O)O1 (stereo not shown) [IIIa-13-11] | 78 | 
19 | CC(C)CC(NC(=O)C(O)C1OC(=O)CC1N)C1Cc2cccc(OCCc3ccccc3)c2C(=O)O1 (stereo not shown) [IIIa-13-12] | 89 | 
20 | CC(C)CC(NC(=O)C(O)C1OC(=O)CC1N)C1Cc2cccc(OCc3ccco3)c2C(=O)O1 (stereo not shown) [IIIa-13-13] | 89 | 
21 | CC(C)CC(NC(=O)C(O)C1OC(=O)CC1N)C1Cc2cccc(OCC3CCCO3)c2C(=O)O1 (stereo not shown) [IIIa-13-14] | 89 | 
22 | CC(C)CC(NC(=O)C(O)C1OC(=O)CC1N)C1Cc2cccc(OCCC3CCCCO3)c2C(=O)O1 (stereo not shown) [IIIa-13-15] | 94 | 
23 | CC(=O)N1CCC(COc2cccc3c2C(=O)OC(C(CC(C)C)NC(=O)C(O)C2OC(=O)CC2N)C3)CC1 (stereo not shown) [IIIa-13-16] | 89 | 

Row | SMILES | inhibition in vivo at 50 mg/kg (50 mg/kg i.p.) [%] | inhibition in vivo at 50 mg/kg [%]
24 | CC(C)CC(NC(=O)C(O)C1OC(=O)CC1N)C1Cc2cccc(OCc3ccc4ccccc4c3)c2C(=O)O1 (stereo not shown) [IIIa-13-17] | 72 | 
25 | CC(C)CC(NC(=O)C(O)C1OC(=O)CC1N)C1Cc2cccc(OCCc3ccc4ccccc4c3)c2C(=O)O1 (stereo not shown) [IIIa-13-18] | 72 | 
26 | CC(C)CC(NC(=O)C(O)C1OC(=O)CC1N)C1Cc2cccc(OCCCBr)c2C(=O)O1 (stereo not shown) [IIIa-13-19] |  | 100
27 | CCC(=O)COc1cccc2c1C(=O)OC(C(CC(C)C)NC(=O)C(O)C1OC(=O)CC1N)C2 (stereo not shown) [IIIa-13-20] | 100 | 
28 | Cc1ccc(COc2cccc3c2C(=O)OC(C(CC(C)C)NC(=O)C(O)C2OC(=O)CC2N)C3)cc1 (stereo not shown) [IIIa-13-21] | 89 | 
29 | COc1ccc(COc2cccc3c2C(=O)OC(C(CC(C)C)NC(=O)C(O)C2OC(=O)CC2N)C3)cc1 (stereo not shown) [IIIa-13-23] | 72 | 
30 | CCOc1cccc2c1C(=O)OC(C(CC(C)C)NC(=O)C(OC(C)=O)C1OC(=O)CC1N)C2 (stereo not shown) [IIIa-14-1] | 56 | 
31 | CCOc1cccc2c1C(=O)OC(C(CC(C)C)NC(=O)C(OC(=O)C(C)C)C1OC(=O)CC1N)C2 (stereo not shown) [IIIa-14-2] | 56 | 
32 | CCCCCCCCCCCCCCCCCC(=O)OC(C(=O)NC(CC(C)C)C1Cc2cccc(OCC)c2C(=O)O1)C1OC(=O)CC1N (stereo not shown) [IIIa-14-3] | 44 | 
33 | CCOc1cccc2c1C(=O)OC(C(CC(C)C)NC(=O)C(OC(=O)CC)C1OC(=O)CC1N)C2 (stereo not shown) [IIIa-14-9] | 56 | 
34 | CCCCOC(C(=O)NC(CC(C)C)C1Cc2cccc(OC)c2C(=O)O1)C1OC(=O)CC1N (stereo not shown) [IIIa-15-1] | 56 | 
35 | CCCCOc1cccc2c1C(=O)OC(C(CC(C)C)NC(=O)C(OCCCC)C1OC(=O)CC1N)C2 (stereo not shown) [IIIa-15-2] | 56 | 
36 | CCCCCCCCCCCCCCCCCCOc1cccc2c1C(=O)OC(C(CC(C)C)NC(=O)C(OCCCC)C1OC(=O)CC1N)C2 (stereo not shown) [IIIa-15-3] | 44 | 
37 | CCCOC(C(=O)NC(CC(C)C)C1Cc2cccc(OCC)c2C(=O)O1)C1OC(=O)CC1N (stereo not shown) [IIIa-15-8] | 56 | 
38 | COC(C(=O)NC(CC(C)C)C1Cc2cccc(O)c2C(=O)O1)C1OC(=O)CC1N (stereo not shown) [IIIa-16-1] | 72 | 
39 | CCCCCCCCCCCCCCCCCCOC(C(=O)NC(CC(C)C)C1Cc2cccc(O)c2C(=O)O1)C1OC(=O)CC1N (stereo not shown) [IIIa-16-3] | 56 | 
40 | CCOC(C(=O)NC(CC(C)C)C1Cc2cccc(O)c2C(=O)O1)C1OC(=O)CC1N (stereo not shown) [IIIa-16-7] | 72 | 
41 | COC(C(=O)NC(CC(C)C)C1Cc2cccc(OC(C)=O)c2C(=O)O1)C1OC(=O)CC1N (stereo not shown) [IIIa-17-1] | 56 | 
42 | CCCCCCCCCCCCCCCCCC(=O)Oc1cccc2c1C(=O)OC(C(CC(C)C)NC(=O)C(OC)C1OC(=O)CC1N)C2 (stereo not shown) [IIIa-17-2] | 44 | 
43 | CCCC(=O)Oc1cccc2c1C(=O)OC(C(CC(C)C)NC(=O)C(OCC)C1OC(=O)CC1N)C2 (stereo not shown) [IIIa-17-3] | 56 | 
44 | CCC(=O)Oc1cccc2c1C(=O)OC(C(CC(C)C)NC(=O)C(OC)C1OC(=O)CC1N)C2 (stereo not shown) [IIIa-17-5] | 44 | 
45 | CCOC(C(=O)NC(CC(C)C)C1Cc2cccc(OC(=O)C(Cl)(Cl)Cl)c2C(=O)O1)C1OC(=O)CC1N (stereo not shown) [IIIa-17-6] | 56 | 
46 | CC(C)CC(NC(=O)C(O)C1OC(=O)CC1NCC(Cl)(Cl)Cl)C1Cc2cccc(O)c2C(=O)O1 (stereo not shown) [IIIa-18-12] | 94 | 

Row | SMILES | inhibition in vivo at 50 mg/kg (50 mg/kg i.p.) [%] | inhibition in vivo at 50 mg/kg [%]
47 | CC(C)CC(NC(=O)C(O)C1OC(=O)CC1NCc1ccccc1)C1Cc2cccc(O)c2C(=O)O1 (stereo not shown) [IIIa-18-14] | 89 | 
48 | CC(C)CC(NC(=O)C(O)C1OC(=O)CC1NCCCCBr)C1Cc2cccc(O)c2C(=O)O1 (stereo not shown) [IIIa-18-26] |  | 94
49 | CSCCNC1CC(=O)OC1C(O)C(=O)NC(CC(C)C)C1Cc2cccc(O)c2C(=O)O1 (stereo not shown) [IIIa-18-38] | 94 | 
50 | CCCCCSCCNC1CC(=O)OC1C(O)C(=O)NC(CC(C)C)C1Cc2cccc(O)c2C(=O)O1 (stereo not shown) [IIIa-18-39] | 94 | 
51 | C#CCNC1CC(=O)OC1C(O)C(=O)NC(CC(C)C)C1Cc2cccc(O)c2C(=O)O1 (stereo not shown) [IIIa-18-46] | 100 | 
52 | CC(C)CC(NC(=O)C(O)C1OC(=O)CC1NCCCCCO)C1Cc2cccc(O)c2C(=O)O1 (stereo not shown) [IIIa-18-52] | 94 | 
53 | CC(C)=CCNC1CC(=O)OC1C(O)C(=O)NC(CC(C)C)C1Cc2cccc(O)c2C(=O)O1 (stereo not shown) [IIIa-18-70] | 94 | 
54 | CCNC1CC(=O)OC1C(OC(C)=O)C(=O)NC(CC(C)C)C1Cc2cccc(O)c2C(=O)O1 (stereo not shown) [IIIa-19-1] | 66 | 
55 | CCCCCCCCCCCCCCCCCCNC1CC(=O)OC1C(OC(C)=O)C(=O)NC(CC(C)C)C1Cc2cccc(O)c2C(=O)O1 (stereo not shown) [IIIa-19-3] | 56 | 
56 | CCNC1CC(=O)OC1C(OC(=O)CC)C(=O)NC(CC(C)C)C1Cc2cccc(O)c2C(=O)O1 (stereo not shown) [IIIa-19-9] | 66 | 
57 | CCCCNC1CC(=O)OC1C(OC(=O)CCC)C(=O)NC(CC(C)C)C1Cc2cccc(O)c2C(=O)O1 (stereo not shown) [IIIa-19-10] | 66 | 
58 | CCNC1CC(=O)OC1C(OC(C)=O)C(=O)NC(CC(C)C)C1Cc2cccc(OC(C)=O)c2C(=O)O1 (stereo not shown) [IIIa-20-1] |  | 56
59 | CCNC1CC(=O)OC1C(OC(=O)CC)C(=O)NC(CC(C)C)C1Cc2cccc(OC(=O)C(C)C)c2C(=O)O1 (stereo not shown) [IIIa-20-2] | 56 | 
60 | CC(=O)Oc1cccc2c1C(=O)OC(C(CC(C)C)NC(=O)C(OC(C)=O)C1OC(=O)CC1NCC(Cl)(Cl)Cl)C2 (stereo not shown) [IIIa-20-10] | 56 | 
61 | CCNC1CC(=O)OC1C(O)C(=O)NC(CC(C)C)C1Cc2cccc(OC(C)=O)c2C(=O)O1 (stereo not shown) [IIIa-21-1] | 78 | 
62 | CC(=O)Oc1cccc2c1C(=O)OC(C(CC(C)C)NC(=O)C(O)C1OC(=O)CC1NCC(C)C)C2 (stereo not shown) [IIIa-21-2] | 72 | 
63 | CCCCCCCCCCCCCCCCCCNC1CC(=O)OC1C(O)C(=O)NC(CC(C)C)C1Cc2cccc(OC(C)=O)c2C(=O)O1 (stereo not shown) [IIIa-21-3] | 66 | 
64 | CCNC1CC(=O)OC1C(O)C(=O)NC(CC(C)C)C1Cc2cccc(OC(=O)CC)c2C(=O)O1 (stereo not shown) [IIIa-21-9] | 66 | 
65 | CC(C)CNC1CC(=O)OC1C(O)C(=O)NC(CC(C)C)C1Cc2cccc(OCC(C)C)c2C(=O)O1 (stereo not shown) [IIIa-22-4] | 94 | 
66 | CCCCCCCCCCCCCCCCCCNC1CC(=O)OC1C(O)C(=O)NC(CC(C)C)C1Cc2cccc(OCCCCC)c2C(=O)O1 (stereo not shown) [IIIa-22-6] | 72 | 
67 | COc1cccc2c1C(=O)OC(C(CC(C)C)NC(=O)C(O)C1OC(=O)CC1NCC(Cl)(Cl)Cl)C2 (stereo not shown) [IIIa-22-7] | 78 | 
